The record followed here is publication doi:10.1101/2024.08.19.608619, “Discovery of potent SARS-CoV-2 nsp3 macrodomain inhibitors uncovers lack of translation to cellular antiviral response” (bioRxiv, 2024).

A word on the Papp A→B: it is how fast a substance crosses the layer from the apical side. Lower therefore signals poor permeation. The term kinetic solubility denotes solubility judged after dilution from a stock solution rather than from solid. For orientation: solubility means how much of the substance goes into solution per volume. A higher solubility goes with much dissolved substance.

Data set [1] is described as follows: Permeability Papp (AB) MDR1/MDCKII. The conditions noted are these: for perc_recovery_a_to_b_mean / perc_recovery_a_to_b_inhibitor_mean: recovery A to B; for perc_recovery_b_to_a_mean / perc_recovery_b_to_a_inhibitor_mean: recovery B to A; for perc_recovery_a_to_b_inhibitor_mean / perc_recovery_b_to_a_inhibitor_mean: MDR1-MDCKII; for papp_b_to_a_mean: B to A.
Data set [2] can be described thus: In vitro kinetic solubility. The conditions noted are these: for solubility_mean: In vitro kinetic solubility, ph 7.4.
The target of another data set is T1, MSK2(h) (Homo sapiens, UniProt O75676).
T1 construct: gene RPS6KA4
As to the kind of experiment: biochemical. Further details: In vitro kinase panel profiling, per cent remaining kinase activity at 10 uM. The conditions noted are these: atp_concentration=45, read-out: % of control remaining. The source says:
(§1) We derisk potential for off-target activity by profiling the compound in a CEREP panel, a standard secondary pharmacology assessment, as well as a kinase panel to derisk a potential hinge-binding motif in our leads, and a PARP panel to derisk activity against human […]. Reassuringly, the compounds are selective, with the only off-targets being moderate human CHRM2 and KOR receptors activity associated with ASAP-0011198.

In the next data set the target is T2, Mnk2(h) (Homo sapiens, UniProt Q9HBH9).
T2 construct: gene MKNK2
As to the kind of experiment: biochemical. Further details: In vitro kinase panel profiling, per cent remaining kinase activity at 10 uM. Conditions: atp_concentration=120, read-out: % of control remaining.
Source text: as §1

In the next data set the target is T3, CaMKI(h) (Homo sapiens, UniProt Q14012).
T3 construct: gene CAMK1
As to the kind of experiment: biochemical. Further details: In vitro kinase panel profiling, per cent remaining kinase activity at 10 uM. The conditions noted are these: atp_concentration=200, read-out: % of control remaining.
Source text: as §1

A further data set addresses T4, PKBα(h) (Homo sapiens, UniProt P31749).
T4 construct: gene AKT1
In words: biochemical. Also noted: In vitro kinase panel profiling, per cent remaining kinase activity at 10 uM. Conditions: atp_concentration=155, read-out: % of control remaining.
Source text: as §1

In the next data set the target is T5, MST1(h) (Homo sapiens, UniProt Q13043).
T5 construct: gene STK4
T5 sequence (Q13043 1-487): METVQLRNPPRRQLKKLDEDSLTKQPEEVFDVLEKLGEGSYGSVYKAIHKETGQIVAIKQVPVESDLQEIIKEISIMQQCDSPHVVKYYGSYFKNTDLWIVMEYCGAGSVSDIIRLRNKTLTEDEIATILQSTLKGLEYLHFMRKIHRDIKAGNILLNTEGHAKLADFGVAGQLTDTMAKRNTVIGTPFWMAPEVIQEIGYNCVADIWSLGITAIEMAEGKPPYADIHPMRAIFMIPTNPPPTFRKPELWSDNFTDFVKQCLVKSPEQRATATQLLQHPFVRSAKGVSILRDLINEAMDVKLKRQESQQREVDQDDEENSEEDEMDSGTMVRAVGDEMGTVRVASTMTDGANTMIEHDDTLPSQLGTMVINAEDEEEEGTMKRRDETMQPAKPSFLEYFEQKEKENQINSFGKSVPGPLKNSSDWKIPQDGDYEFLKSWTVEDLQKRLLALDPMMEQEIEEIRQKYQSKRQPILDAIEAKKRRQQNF
As to the kind of experiment: biochemical. Further details: In vitro kinase panel profiling, per cent remaining kinase activity at 10 uM. Conditions: atp_concentration=90, read-out: % of control remaining.
Source text: as §1

A further data set deals with T6, NEK2(h) (Homo sapiens, UniProt P51955).
T6 sequence (P51955 1-445): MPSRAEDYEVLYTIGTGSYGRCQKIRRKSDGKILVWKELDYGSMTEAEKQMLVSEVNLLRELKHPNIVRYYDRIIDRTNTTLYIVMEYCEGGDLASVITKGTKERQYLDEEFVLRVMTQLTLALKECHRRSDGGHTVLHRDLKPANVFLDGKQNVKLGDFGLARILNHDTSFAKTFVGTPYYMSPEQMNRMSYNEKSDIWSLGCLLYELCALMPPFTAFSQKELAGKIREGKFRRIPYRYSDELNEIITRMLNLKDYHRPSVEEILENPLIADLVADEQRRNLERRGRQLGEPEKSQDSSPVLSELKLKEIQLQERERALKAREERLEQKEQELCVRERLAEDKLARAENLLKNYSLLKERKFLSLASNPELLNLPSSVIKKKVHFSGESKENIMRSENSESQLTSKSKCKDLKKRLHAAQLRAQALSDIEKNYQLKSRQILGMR
As to the kind of experiment: biochemical. Also noted: In vitro kinase panel profiling, per cent remaining kinase activity at 10 uM. Conditions: atp_concentration=120, read-out: % of control remaining.
Source text: as §1

For a further data set, the target named is T7, SAPK2a(h) (Homo sapiens, UniProt Q16539).
T7 construct: gene MAPK14
As to the kind of experiment: biochemical. Further details: In vitro kinase panel profiling, per cent remaining kinase activity at 10 uM. Conditions: atp_concentration=90, read-out: % of control remaining.
Source text: as §1

Another data set concerns the target T8, AMPKα1(h) (Homo sapiens, UniProt Q13131).
T8 construct: gene PRKAA1
In words: biochemical. Also noted: In vitro kinase panel profiling, per cent remaining kinase activity at 10 uM. Conditions: atp_concentration=45, read-out: % of control remaining.
Source text: as §1

A further data set deals with T9, CK2α2(h) (Homo sapiens, UniProt P19784).
T9 construct: gene CSNK2A2
In words: biochemical. Further details: In vitro kinase panel profiling, per cent remaining kinase activity at 10 uM. The conditions noted are these: atp_concentration=10, read-out: % of control remaining.
Source text: as §1

The next data set concerns the target T10, Abl(h) (Homo sapiens, UniProt P00519).
T10 construct: gene ABL1
As to the kind of experiment: biochemical. Further details: In vitro kinase panel profiling, per cent remaining kinase activity at 10 uM. Conditions: atp_concentration=45, read-out: % of control remaining.
Source text: as §1

Another data set addresses T11, MLK1(h) (Homo sapiens, UniProt P80192).
T11 construct: gene MAP3K9
As to the kind of experiment: biochemical. Further details: In vitro kinase panel profiling, per cent remaining kinase activity at 10 uM. The conditions noted are these: atp_concentration=45, read-out: % of control remaining.
Source text: as §1

Another data set addresses T12, CK1γ1(h) (Homo sapiens, UniProt Q9HCP0).
T12 construct: gene CSNK1G1
As to the kind of experiment: biochemical. Also noted: In vitro kinase panel profiling, per cent remaining kinase activity at 10 uM. Conditions: atp_concentration=15, read-out: % of control remaining.
Source text: as §1

The target in data set [3] is T13, PI3 Kinase (p110β/p85α)(h) (Homo sapiens, UniProt P42338).
T13 construct: gene PIK3CB
In words: biochemical. Also noted: In vitro kinase panel profiling, per cent remaining kinase activity at 10 uM. Conditions: atp_concentration=200, read-out: % of control remaining.
Source text: as §1

Where [4] appears, read: In vitro MDR1-MDCKII permeability, no inhibitor.

Converted amounts (≈) assume the structure as drawn. “And” between values parts separate entries of the source, which are not always exact repeats. Equal values may be shown once. Read-outs that look alike come from different tables or passages of the source.

T7 sequence (Q16539 whole entry): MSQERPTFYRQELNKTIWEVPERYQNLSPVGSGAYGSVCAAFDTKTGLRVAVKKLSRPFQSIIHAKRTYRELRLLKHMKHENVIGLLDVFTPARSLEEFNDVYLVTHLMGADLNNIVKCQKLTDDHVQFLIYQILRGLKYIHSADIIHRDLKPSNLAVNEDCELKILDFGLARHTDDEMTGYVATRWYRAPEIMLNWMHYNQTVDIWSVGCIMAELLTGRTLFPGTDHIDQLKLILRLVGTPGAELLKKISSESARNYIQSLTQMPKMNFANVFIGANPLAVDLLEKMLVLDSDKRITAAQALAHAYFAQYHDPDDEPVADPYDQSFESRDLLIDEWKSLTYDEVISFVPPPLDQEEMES
T2 sequence (Q9HBH9 whole entry): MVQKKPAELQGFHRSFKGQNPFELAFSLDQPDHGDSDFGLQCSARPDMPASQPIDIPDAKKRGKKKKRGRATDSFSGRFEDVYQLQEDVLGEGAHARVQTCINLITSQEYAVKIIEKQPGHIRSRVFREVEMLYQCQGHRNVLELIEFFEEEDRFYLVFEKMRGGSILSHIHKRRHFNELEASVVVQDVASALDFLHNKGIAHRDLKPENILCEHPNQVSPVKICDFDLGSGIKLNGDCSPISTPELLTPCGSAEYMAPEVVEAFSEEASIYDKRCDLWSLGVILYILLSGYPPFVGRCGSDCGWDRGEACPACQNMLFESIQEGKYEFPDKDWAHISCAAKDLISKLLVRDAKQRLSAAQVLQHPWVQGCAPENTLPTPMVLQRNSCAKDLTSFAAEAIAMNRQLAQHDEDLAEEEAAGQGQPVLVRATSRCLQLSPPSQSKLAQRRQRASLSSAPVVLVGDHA
T3 sequence (Q14012 whole entry): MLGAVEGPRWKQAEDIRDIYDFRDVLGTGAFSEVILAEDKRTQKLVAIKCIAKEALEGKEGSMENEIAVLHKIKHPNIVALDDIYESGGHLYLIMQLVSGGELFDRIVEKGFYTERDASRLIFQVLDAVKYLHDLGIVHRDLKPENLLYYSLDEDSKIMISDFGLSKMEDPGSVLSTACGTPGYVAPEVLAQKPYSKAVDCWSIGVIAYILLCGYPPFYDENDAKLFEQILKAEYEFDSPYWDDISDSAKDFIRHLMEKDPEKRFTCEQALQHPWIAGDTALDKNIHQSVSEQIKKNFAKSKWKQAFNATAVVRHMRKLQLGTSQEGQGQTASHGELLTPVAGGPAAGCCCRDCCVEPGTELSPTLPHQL
T4 sequence (P31749 whole entry): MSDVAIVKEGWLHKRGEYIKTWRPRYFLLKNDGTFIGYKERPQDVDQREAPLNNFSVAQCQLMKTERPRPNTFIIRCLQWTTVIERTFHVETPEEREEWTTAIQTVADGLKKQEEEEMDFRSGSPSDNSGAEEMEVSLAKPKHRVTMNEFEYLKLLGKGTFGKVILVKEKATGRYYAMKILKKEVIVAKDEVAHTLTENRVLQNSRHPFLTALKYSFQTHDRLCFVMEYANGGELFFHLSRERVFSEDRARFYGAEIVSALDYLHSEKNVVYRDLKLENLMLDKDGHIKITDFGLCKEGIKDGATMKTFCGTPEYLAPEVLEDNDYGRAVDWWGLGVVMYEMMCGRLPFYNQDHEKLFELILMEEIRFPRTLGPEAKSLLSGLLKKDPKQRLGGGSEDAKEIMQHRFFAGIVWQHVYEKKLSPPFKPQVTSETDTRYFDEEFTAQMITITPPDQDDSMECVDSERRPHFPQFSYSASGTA
T12 sequence (Q9HCP0 whole entry): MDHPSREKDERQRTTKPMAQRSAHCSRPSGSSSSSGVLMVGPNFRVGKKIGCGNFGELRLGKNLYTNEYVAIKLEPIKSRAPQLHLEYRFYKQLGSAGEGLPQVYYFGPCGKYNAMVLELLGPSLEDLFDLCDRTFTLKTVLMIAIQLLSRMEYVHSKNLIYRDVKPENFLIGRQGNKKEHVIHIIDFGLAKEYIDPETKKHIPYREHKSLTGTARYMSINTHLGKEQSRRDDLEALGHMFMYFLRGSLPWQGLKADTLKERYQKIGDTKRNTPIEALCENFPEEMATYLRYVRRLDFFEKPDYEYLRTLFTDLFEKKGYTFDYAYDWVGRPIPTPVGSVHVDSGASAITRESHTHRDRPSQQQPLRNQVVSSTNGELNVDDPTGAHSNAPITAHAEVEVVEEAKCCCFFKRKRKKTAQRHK
T13 sequence (P42338 whole entry): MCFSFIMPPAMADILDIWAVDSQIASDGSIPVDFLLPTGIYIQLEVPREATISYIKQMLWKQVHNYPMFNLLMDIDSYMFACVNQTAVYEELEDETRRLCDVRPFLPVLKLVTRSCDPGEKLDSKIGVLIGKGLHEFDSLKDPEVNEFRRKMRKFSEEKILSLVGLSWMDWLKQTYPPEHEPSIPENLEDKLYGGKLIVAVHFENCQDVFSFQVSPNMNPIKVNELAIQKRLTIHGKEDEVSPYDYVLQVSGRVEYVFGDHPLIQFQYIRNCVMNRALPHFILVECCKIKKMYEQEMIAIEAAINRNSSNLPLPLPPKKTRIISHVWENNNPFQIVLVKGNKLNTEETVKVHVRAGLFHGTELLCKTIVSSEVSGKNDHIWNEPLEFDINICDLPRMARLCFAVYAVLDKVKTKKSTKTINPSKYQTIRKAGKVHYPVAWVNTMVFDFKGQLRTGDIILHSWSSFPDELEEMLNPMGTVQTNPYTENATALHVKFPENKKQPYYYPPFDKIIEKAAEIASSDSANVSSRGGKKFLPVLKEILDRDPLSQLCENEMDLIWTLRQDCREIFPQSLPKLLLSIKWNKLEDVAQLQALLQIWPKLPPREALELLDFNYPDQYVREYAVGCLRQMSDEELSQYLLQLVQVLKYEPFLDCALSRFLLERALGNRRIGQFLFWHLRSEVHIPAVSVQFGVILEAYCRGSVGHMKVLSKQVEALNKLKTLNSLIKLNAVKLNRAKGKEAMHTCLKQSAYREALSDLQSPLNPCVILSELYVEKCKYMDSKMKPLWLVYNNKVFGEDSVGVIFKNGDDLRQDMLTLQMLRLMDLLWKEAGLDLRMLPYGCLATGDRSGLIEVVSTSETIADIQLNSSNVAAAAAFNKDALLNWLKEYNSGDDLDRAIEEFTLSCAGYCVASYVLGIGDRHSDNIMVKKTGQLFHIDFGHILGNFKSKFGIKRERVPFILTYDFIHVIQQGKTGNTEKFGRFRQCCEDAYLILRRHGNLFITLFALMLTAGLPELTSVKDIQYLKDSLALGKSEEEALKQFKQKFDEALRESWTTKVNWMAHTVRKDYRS
T13 sequence (P27986 whole entry partner): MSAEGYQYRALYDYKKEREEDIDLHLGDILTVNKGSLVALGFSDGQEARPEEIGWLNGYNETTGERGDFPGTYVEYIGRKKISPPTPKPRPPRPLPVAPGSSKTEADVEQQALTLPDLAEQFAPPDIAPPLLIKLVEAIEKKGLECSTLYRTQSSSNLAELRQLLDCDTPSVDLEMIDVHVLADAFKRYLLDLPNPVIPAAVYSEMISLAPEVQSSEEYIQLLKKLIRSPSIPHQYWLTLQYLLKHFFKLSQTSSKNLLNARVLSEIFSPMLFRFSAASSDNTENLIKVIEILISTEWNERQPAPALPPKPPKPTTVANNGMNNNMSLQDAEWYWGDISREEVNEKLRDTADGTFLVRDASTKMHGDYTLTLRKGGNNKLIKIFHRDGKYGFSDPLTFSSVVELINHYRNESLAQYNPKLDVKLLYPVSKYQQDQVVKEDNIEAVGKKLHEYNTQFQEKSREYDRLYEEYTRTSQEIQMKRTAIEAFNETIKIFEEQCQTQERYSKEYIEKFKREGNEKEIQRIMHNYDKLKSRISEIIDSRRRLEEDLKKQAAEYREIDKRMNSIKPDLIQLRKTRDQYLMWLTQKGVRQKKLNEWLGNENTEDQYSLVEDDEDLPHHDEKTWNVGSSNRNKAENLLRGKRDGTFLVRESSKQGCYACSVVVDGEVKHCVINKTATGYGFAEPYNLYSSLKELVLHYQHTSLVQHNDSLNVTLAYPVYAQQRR
T11 sequence (P80192 whole entry): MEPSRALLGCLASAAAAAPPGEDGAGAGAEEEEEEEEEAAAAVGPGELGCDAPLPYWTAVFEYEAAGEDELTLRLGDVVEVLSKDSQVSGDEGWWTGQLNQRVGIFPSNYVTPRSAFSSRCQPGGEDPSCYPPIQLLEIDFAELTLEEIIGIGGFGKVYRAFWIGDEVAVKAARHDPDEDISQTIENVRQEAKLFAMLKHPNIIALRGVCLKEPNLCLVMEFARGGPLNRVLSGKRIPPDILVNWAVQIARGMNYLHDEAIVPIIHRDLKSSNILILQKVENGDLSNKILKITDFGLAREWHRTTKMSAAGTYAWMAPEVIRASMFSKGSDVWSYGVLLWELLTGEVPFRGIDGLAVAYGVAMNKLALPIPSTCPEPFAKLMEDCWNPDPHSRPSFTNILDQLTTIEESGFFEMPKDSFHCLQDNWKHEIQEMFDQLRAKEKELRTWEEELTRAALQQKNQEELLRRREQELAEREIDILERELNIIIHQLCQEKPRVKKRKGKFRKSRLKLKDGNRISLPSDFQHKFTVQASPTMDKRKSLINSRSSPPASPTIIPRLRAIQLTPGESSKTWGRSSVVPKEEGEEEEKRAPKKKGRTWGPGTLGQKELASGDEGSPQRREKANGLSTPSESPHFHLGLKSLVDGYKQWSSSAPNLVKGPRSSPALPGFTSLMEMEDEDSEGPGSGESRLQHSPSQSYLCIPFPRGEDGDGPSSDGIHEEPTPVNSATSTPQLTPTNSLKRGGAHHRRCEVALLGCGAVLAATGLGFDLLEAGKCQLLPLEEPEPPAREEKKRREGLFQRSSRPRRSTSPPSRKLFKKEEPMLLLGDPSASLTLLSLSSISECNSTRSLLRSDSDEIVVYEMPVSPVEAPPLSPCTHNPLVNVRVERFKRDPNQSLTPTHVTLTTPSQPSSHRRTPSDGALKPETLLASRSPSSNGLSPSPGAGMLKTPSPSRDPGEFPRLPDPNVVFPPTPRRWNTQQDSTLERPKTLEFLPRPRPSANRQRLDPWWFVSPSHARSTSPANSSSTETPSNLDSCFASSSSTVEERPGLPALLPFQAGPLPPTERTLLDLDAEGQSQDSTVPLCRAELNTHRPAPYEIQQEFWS

In [1] (In vitro MDR1-MDCKII permeability, A to B, mean), `Cc1nn(C)cc1-c1cc2c(NC(c3ccc4c(c3)S(=O)(=O)CCC4)C(C)C)ncnc2[nH]1` (stereo not drawn) [ASAP-0011446] returned a papp_a_to_b_mean of 4.36 ×10⁻⁶ cm/s. Besides, the perc_recovery_a_to_b_mean stood at 77.0% in data set [1] (In vitro MDR1-MDCKII permeability, mean) and 69.7% in data set [1] (setting [4]). Besides, in data set [1] (setting [4]), the perc_recovery_b_to_a_mean amounted to 63.5%. Further, the perc_recovery_a_to_b_inhibitor_mean in [1] (with inhibitor Verapamil) is recorded as 87.7%. In data set [1] (with inhibitor Verapamil), the perc_recovery_b_to_a_inhibitor_mean was 93.0%. Moreover, in data set [1] (dog, MDCK-MDR1, Papp (AB) MDR1/MDCKII, A to B), the Papp A→B stood at 4.4 ×10⁻⁶ cm/s. The logd in the data set “LogD” and in the data set “LogD” (pH 7.4) was 3.1 in each case. Also, in data set [2], the solubility (kinetic) was found to be 65 µM (≈ 30.2 µg/mL). The amount in solution in data set [2] (pH 7.4) (solubility) came to 65 µM (≈ 30.2 µg/mL). The remaining activity at 10 µM at MSK2(h) (batch_name=ASAP-0011446-002) is 105%; at Mnk2(h) (batch_name=ASAP-0011446-002) it was 99%; at CaMKI(h) (batch_name=ASAP-0011446-002), 101%; on PKBα(h) (batch_name=ASAP-0011446-002), 91%; at MST1(h) (batch_name=ASAP-0011446-002), 115%; on NEK2(h) (batch_name=ASAP-0011446-002), 98%. Further, the remaining activity at 10 µM at SAPK2a(h) (batch_name=ASAP-0011446-002) was found to be 98%; on AMPKα1(h) (batch_name=ASAP-0011446-002) it was 102%; on CK2α2(h) (batch_name=ASAP-0011446-002) it was 92%; on Abl(h) (batch_name=ASAP-0011446-002), 76%; on MLK1(h) (batch_name=ASAP-0011446-002) it was 79%; at CK1γ1(h) (batch_name=ASAP-0011446-002), 99%. Also, the remaining activity at 10 µM in [3] (batch_name=ASAP-0011446-002) came to 105%.
`C[C@H](C(=O)O)[C@@H](NC(=O)c1ncnc2[nH]ccc12)c1ccc(Br)cc1` [ASAP-0014722] returned a papp_b_to_a_mean in data set [1] (setting [4]) of 0.274 ×10⁻⁶ cm/s. In data set [1] (setting [4]), this compound yielded an efflux_ratio of 8.67. In addition, the perc_recovery_a_to_b_mean in data set [1] (setting [4]) was 89.1% and 77.4%. This compound showed a perc_recovery_b_to_a_mean in [1] (setting [4]) of 87.2%. In data set [1] (with inhibitor Cyclosporin A), this compound displayed a perc_recovery_a_to_b_inhibitor_mean of 80.9%. The compound further came in with a perc_recovery_b_to_a_inhibitor_mean in data set [1] (with inhibitor Cyclosporin A) of 84.1%. The same compound showed a logd in “LogD” (pH 7.4, In vitro LogD) of 0.6. Also, the solubility_mean in data set [2] stood at 358 µM (≈ 144 µg/mL). The remaining activity at 10 µM at MSK2(h) (batch_name=ASAP-0014722-002) amounted to 90%; at Mnk2(h) (batch_name=ASAP-0014722-002), 110%; on CaMKI(h) (batch_name=ASAP-0014722-002), 101%; on PKBα(h) (batch_name=ASAP-0014722-002), 95%; at MST1(h) (batch_name=ASAP-0014722-002) it was 121%; on NEK2(h) (batch_name=ASAP-0014722-002), 101%. Moreover, the remaining activity at 10 µM on SAPK2a(h) (batch_name=ASAP-0014722-002) is 103%; on AMPKα1(h) (batch_name=ASAP-0014722-002), 93%; on CK2α2(h) (batch_name=ASAP-0014722-002), 91%; on Abl(h) (batch_name=ASAP-0014722-002), 97%; at MLK1(h) (batch_name=ASAP-0014722-002), 86%; at CK1γ1(h) (batch_name=ASAP-0014722-002), 92%. Moreover, in [3] (batch_name=ASAP-0014722-002), the remaining activity at 10 µM stood at 97%.
In [1] (setting [4]), `COc1ccc([C@H](Cc2nnn[nH]2)NC(=O)c2ncnc3[nH]ccc23)cc1` [ASAP-0015381] had a papp_b_to_a_mean of 0.021 ×10⁻⁶ cm/s. The compound also registered an efflux_ratio in data set [1] (setting [4]) of 0.67. Moreover, in data set [1] (setting [4]), the perc_recovery_a_to_b_mean was 87.0% and 68.4%. Moreover, in [1] (setting [4]), the perc_recovery_b_to_a_mean was 84.4%. This compound showed a perc_recovery_a_to_b_inhibitor_mean in data set [1] (with inhibitor Cyclosporin A) of 83.1%. Moreover, the perc_recovery_b_to_a_inhibitor_mean in data set [1] (with inhibitor Cyclosporin A) amounted to 85.5%. Besides, the logd in the data set “LogD” (pH 7.4, In vitro LogD) is on record as -0.5. The compound also registered a solubility_mean in [2] of 367 µM (≈ 134 µg/mL). In addition, the remaining activity at 10 µM at MSK2(h) (batch_name=ASAP-0015381-001) was determined as 103%; on Mnk2(h) (batch_name=ASAP-0015381-001), 115%; at CaMKI(h) (batch_name=ASAP-0015381-001) it was 103%; at PKBα(h) (batch_name=ASAP-0015381-001) it was 97%; at MST1(h) (batch_name=ASAP-0015381-001) it was 127%; on NEK2(h) (batch_name=ASAP-0015381-001) it was 106%. Moreover, the remaining activity at 10 µM on SAPK2a(h) (batch_name=ASAP-0015381-001) turned out to be 103%; at AMPKα1(h) (batch_name=ASAP-0015381-001), 97%; on CK2α2(h) (batch_name=ASAP-0015381-001), 93%; at Abl(h) (batch_name=ASAP-0015381-001), 102%; at MLK1(h) (batch_name=ASAP-0015381-001), 87%; at CK1γ1(h) (batch_name=ASAP-0015381-001), 94%. In addition, in data set [3] (batch_name=ASAP-0015381-001), the remaining activity at 10 µM came to 97%.
